# Measured values: PubChem BioAssay (NCI)
# Several values for one entry are separate records, joined by “and”; a condition that tells them apart may be missing. Equal entries are not always repeated.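 Cells were grown in 96-well plates and exposed to each compound for 48 hours at five concentrations; endpoints were interpolated linearly between bracketing concentrations, or set to the highest concentration if not reached. TGI marks complete inhibition of growth.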
# What was measured:
# Test in all cases: NCI-60 cell line screen, 48 h
# BT-549 breast = test system: BT-549 breast
# HOP-92 NSCLC = test system: HOP-92 NSCLC
# IGROV1 ovarian = test system: IGROV1 ovarian
# LOX IMVI melanoma = test system: LOX IMVI melanoma
# MALME-3M melanoma = test system: MALME-3M melanoma
# NCI-H23 lung = test system: NCI-H23 lung
# NCI/ADR-RES ovarian = test system: NCI/ADR-RES ovarian
# SN12C renal = test system: SN12C renal
# TK-10 renal = test system: TK-10 renal
# UACC-257 melanoma = test system: UACC-257 melanoma
SMILES,TGI (BT-549 breast) [µM],TGI (HOP-92 NSCLC) [µM],TGI (IGROV1 ovarian),TGI (LOX IMVI melanoma) [µM],TGI (MALME-3M melanoma) [µM],TGI (NCI-H23 lung),TGI (NCI/ADR-RES ovarian),TGI (SN12C renal) [µM],TGI (TK-10 renal),TGI (UACC-257 melanoma)
COc1ccc(N=Nc2c(N)nn3c(SC)c(C#N)c(N)nc23)cc1,49.6,27.6,4.19 µM,3.12,31.7,21.1 µM,49.8 µM,19.1,33.6 µM,20.8 µM
C=CCN1C(=O)CC(=O)N(NC2=NNC3(C(=O)N2)c2ccccc2-c2ccccc23)C1=S,> 100,61.8,> 100 µM,> 100,> 100,> 100 µM,> 100 µM,> 100,> 100 µM,> 100 µM
C=CCNC1=C2C[C@@H](C)C[C@@H](OC)[C@H](OC(=O)CCN(C)C)[C@H](C)/C=C(\C)[C@@H](OC(N)=O)[C@H](OC)/C=C\C=C(/C)C(=O)NC(=CC1=O)C2=O,26.4,29.2,14.5 µM,11.2,19.2,17.1 µM,> 80.3 µM,17.9,17.3 µM,16.7 µM
Cc1cc(=O)n2nc(CSc3nnc(Sc4cc(O)ccc4O)s3)sc2n1,> 100,> 100,> 100 µM,36.3,> 100,> 100 µM,> 100 µM,> 100,> 100 µM,> 100 µM
CC(=O)C(C(C)=O)[C@H]1OC(C)(C)O[C@H]1[C@H]1COC(C)(C)O1,90.5,> 100,> 100 µM,> 100,> 100,> 100 µM,> 100 µM,> 100,> 100 µM,> 100 µM
COc1ccc(/C=N/Nc2nnc3c(n2)c2ccccc2c2nn(-c4ccccc4Cl)nc23)cc1,> 100,> 100,> 100 µM,> 100,> 100,> 100 µM,> 100 µM,> 100,> 100 µM,> 100 µM
COC(=O)c1ccccc1C1CN=NC12Cc1c(C)ccc(C)c1C2=O (centres undefined),> 100,> 100,> 100 µM,> 100,> 100,> 100 µM,> 100 µM,> 100,> 100 µM,> 100 µM
COC(=O)[C@@H]1COC(=O)N1,> 100,> 100,> 100 µM,> 100,> 100,> 100 µM,> 100 µM,> 100,> 100 µM,> 100 µM
COc1ccc(/C(CC2OC(=O)c3ccccc32)=N\NC(N)=O)cc1 (centres undefined),> 100,> 100,> 100 µM,> 100,> 100,> 100 µM,> 100 µM,> 100,> 100 µM,> 100 µM
Cc1cc(C)nc(NS(=O)(=O)c2ccc(Nc3c4ccccc4nc4ccc(C(=O)Nc5ccc(S(=O)(=O)N=C(N)N)cc5)cc34)cc2)n1,95.2,> 100,> 100 µM,34.4,> 100,> 100 µM,> 100 µM,> 100,> 100 µM,> 100 µM
N#CC(NNC(=O)c1ccccc1O)c1c(O)ccc2ccccc12 (centres undefined),> 54.8,40.7,33.9 µM,6.64,27.6,20.8 µM,19.3 µM,37.9,36.5 µM,24.9 µM
CC(=O)O[C@H]1C(=O)[C@@]2(C)[C@H]([C@H](OC(=O)c3ccco3)[C@]3(O)C[C@H](OC(=O)[C@H](O)[C@@H](NC(=O)c4ccccc4)c4ccccc4)C(C)=C1C3(C)C)[C@]1(OC(C)=O)CO[C@@H]1C[C@@H]2O,> 25,> 25,> 25 µM,> 25,> 25,> 25 µM,> 25 µM,> 25,> 25 µM,> 25 µM
Cc1ccc(-n2cc(-c3ccc(Cl)cc3)c3c(=N)n(N)cnc32)cc1,31.7,21.6,24.5 µM,29.8,26.1,30.3 µM,26.8 µM,29.9,28.7 µM,21.5 µM
CC(C)=CCc1c2c(c(O)c3c(=O)c4c(oc13)-c1ccc(O)cc1OC4C=C(C)C)C=CC(C)(C)O2 (centres undefined),28.1,20.8,27.8 µM,23.8,34.3,20.3 µM,34.6 µM,17,28.5 µM,29.4 µM
CCC(=C/[C@H](C)C/C=C/C(C)=C/[C@@H](C)C(=O)[C@@H](C)[C@H](O)[C@@H](C)CC)/C=C/[C@H]1CC=CC(=O)O1,1.37,4.26,3.96 µM and 10.4 µM,1.22,2.31,5.26 µM and 13.3 µM,1.65 µM and 0.39 µM,,1.91 µM and 14.3 µM,2.22 µM and 18 µM
COC1OC(C(=O)O)C2OC(C)(C)OC12 (centres undefined),> 100,> 100,> 100 µM,> 100,> 100,> 100 µM,> 100 µM,> 100,> 100 µM,> 100 µM
CC(NNC(=O)c1ccncc1)c1ccc(Cl)cc1Cl (centres undefined),> 100,> 100,> 100 µM,> 100,> 100,> 100 µM,> 100 µM,> 100,> 100 µM,> 100 µM
